Assay results: patent US10106515B2, “1-(cyclopent-2-en-1-yl)-3-(2-hydroxy-3-(arylsulfonyl)phenyl)urea derivatives as CXCR2 inhibitors” (GLAXOSMITHKLINE INTELLECTUAL PROPERTY DEVELOPMENT LIMITED, priority 2014, dated 2018)

Columns and labels:
[1] = system: upregulation of CD11b in GROα stimulated neutrophils in human whole blood; assay: Human whole blood assay (CD11b upregulation); format: cell-based; conditions: Homo sapiens, Neutrophil, inhibition of CD11b upregulation, GROα 33 nM final, flow cytometry, read-out: pIC50 (human whole blood assay) (converted)
Method in brief: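 Heparinised human whole blood preincubated 15 min at 37 °C with compound (10-point, 1:3 dilutions), then stimulated with 33 nM final GROα for 15 min at 37 °C. CD11b-FITC/CD16-PE staining on ice, lysis/fixation, flow cytometry; neutrophils gated by side scatter and CD16.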

[2] = system: Rat oligodendrocyte precursor cells (OPCs); assay: OPC differentiation assay; format: cell-based; conditions: percentage of MBP+ cells
Description: In the oligodendrocyte precursor cell (OPC) in vitro differentiation assay, purified or enriched OPCs are cultured and differentiated into immature oligodendrocytes, mature oligodendrocytes, and myelinating oligodendrocytes (Watkins et al. (2008) Neuron 60:555-569). Specific markers have been identified for each specific stage of OPC differentiation. Myelin basic proteins (MBP), a specific marker for matured and myelinating oligodendrocytes, is used as an indicator for OPC differentiation and maturation (Franklin et al. (2008) J Neurosci, 255 Suppl 1:19-25). The OPC differentiation assay provides a tool to screen the compounds with the potency of promoting OPC differentiation, which is an initial step for downstream remyelination repair in vivo after demyelination occurs in mutiple scelerosis (MS) patients.
Rat oligodendrocyte precursor cells (OPCs) were obtained from P1 pups and were cultured in DMEM/20S medium (DMEM with 20% FBS, 4 mM L-Glutamine, 1 mM sodium pyruvate and penicillin) (Zhang et al. (2007) Nature Protocol 2 (5):1044). […] The plate was read on Cellomics (SN: 04080019LH; P/N no 1-0117) using target activation protocol to calculate the percentage of MBP+ cells to reflect the differentiation of OPCs.

- IC50 [1]: 0.0398 µM
- IC50 ([2]; Oligodendrocyte precursor cell, read-out: pIC50 (OPC differentiation assay) (converted)): 6.31 µM
SMILES: CC1=CCC[C@H]1NC(=O)Nc1ccc(Cl)c(S(=O)(=O)[C@@]2(C)CCOC2)c1O [Compound 195, 1-(4-chloro-2-hydroxy-3-(((S)-3-methyltetrahydrofuran-3-yl)sulfonyl)phenyl)-3-((R)-2-methylcyclopent-2-en-1-yl)urea]
- OPC differentiation [2]: promote OPC differentiation
